In US10280174B2, “Salt of fused pyrimidine compound and crystal thereof” (TAIHO PHARMACEUTICAL CO., LTD., priority 2015, dated 2019):

Key:
A431 cells / TMD8 cells = test: Proliferation inhibitory activity against cell lines expressing BTK and EGFR, and selectivity; format: cell-based, human
Source text: TMD8 cells, which are of a diffuse large B-cell lymphoma cell line expressing BTK, were suspended in RPMI1640 medium (manufactured by Life Technologies Corp.) containing 10% fetal bovine serum. A431 cells, which are of an EGFR-overexpressing, highly activated human epidermoid carcinoma cell line, were suspended in DMEM, high glucose medium (manufactured by Life Technologies Corp.) containing 10% fetal bovine serum. The cell suspensions were inoculated into each well of 384-well flat-bottomed microplates, and the cells were cultured for 1 day at 37° C. in an incubator containing 5% carbon dioxide gas. […] A DMSO solution of the test compounds was diluted with the medium used in the suspension of the each cell, and this was added to each of the wells of the cell culture plates such that the final concentration of DMSO would be 0.2%. The cells were further cultured for 3 days at 37° C. in an incubator containing 5% carbon dioxide gas. […] Proliferation inhibition ratio (%)=(C−T)/(C−C0)×100
C0: Luminescence intensity of a well measured before the addition of the test compound

[1] = tested on: mouse collagen-induced arthritis model; test: Mice collagen-induced arthritis model; format: in vivo, DBA/1 mice; conditions: 0.381 mg/kg, oral, 1 time per day, 17 days; FIG. 11
Description: The test was carried out in accordance with the method described in Non-Patent Literature (Brand D D, et al., Nat Protoc. 2007; 2, 1269-1275, Xu D. et al., JPET, 2012 April; 341 (1):90-103). Seven-week-old male/DBA/1 mice (CHARLES RIVER LABORATORIES JAPAN, INC.) were intracutaneously injected in the dorsum with 100 μL/body of an equal amount-mixed solution (emulsion) of 4 mg/mL of bovine type 2 collagen solution (Collagen Research Center) and Complete Freund's Adjuvant (DIFCO Inc.) (initial immunization). After 21 days therefrom, the mice were intracutaneously injected in the chine with 100 μL/body of an equal amount-mixed solution (emulsion) of 4 mg/mL of bovine type 2 collagen solution (Collagen Research Center) and Complete Freund's Adjuvant (DIFCO) to provide an additional immunization. The oral administration of 1 time per day was continued for 17 days setting the administration initiation day (day 0) as the eighth day from the additional immunization. Symptoms of arthritis in day 0, day 3, day 7, day 10, day 14 and day 17 were scored macroscopically (0: No change, 1: Swelling of a finger, 2: Swelling of two fingers or more, 3: Swelling of instep, 4: Swelling of all fingers extending wrist/ankle), and a total in four limbs was obtained as a point of individual body (maximum 16 points).

C=CC(=O)N1CCC[C@@H](n2nc(C(=O)Nc3nc4ccccc4o3)c3c(N)ncnc32)C1.O=C(O)/C=C/C(=O)O [monofumarate of Compound A, (R)-1-(1-acryloylpiperidin-3-yl)-4-amino-N-(benzo[d]oxazol-2-yl)-1H-pyrazolo[3,4-d]pyrimidine-3-carboxamide.monofumarate]
BTK inhibition selectivity in the cell proliferation inhibition ratio relative to Comparative compound 1 (A431 cells / TMD8 cells; A431/TMD8): about 65 times | A431 cell proliferation inhibition ratio/TMD8 cell proliferation inhibition ratio (A431 cells / TMD8 cells; GI50 based, 3 days culture, CELLTITER GLO): 7643 | arthritis score [1]: lowered the arthritis score effectively
